From ChEMBL document CHEMBL4665898, “Semisynthetic Analogs of the Antibiotic Fidaxomicin-Design, Synthesis, and Biological Evaluation” (ACS Med Chem Lett, 2020) come the findings set out here.

Some results are limits rather than exact numbers.

The subject of this assay is Mycobacterium tuberculosis. In words: Antimycobacterial activity against multi-drug resistant Mycobacterium tuberculosis after 5 days in presence of 7H9 medium by CLSI-based broth microdilution method. In kind it is functional. The conditions noted are these: 120 h, time 5 day.

The term MIC denotes the smallest concentration in the dilution series that meets the test's criterion for growth inhibition. In the case of `CCc1c(Cl)c(O)c(Cl)c(O)c1C(=O)O[C@@H]1[C@@H](O)[C@@H](OC)[C@@H](OC/C2=C\C=C\C[C@H](O)/C(C)=C/[C@H](CC)[C@@H](O[C@@H]3OC(C)(C)[C@@H](OC(=O)C(C)C)[C@H](O)[C@@H]3O)/C(C)=C/C(C)=C/C[C@@H]([C@@H](C)O)OC2=O)O[C@H]1C`, the MIC was less than 8 ng/mL.
